Experimental data from patent publication US6537948B1, “Uracil compounds and use thereof” (Sumitomo Chemical Company, Limited, priority 2000, dated 2003).

Key:
Assay type in all cases: in vivo
[1] = test system: ivyleaf morningglory (Ipomoea hederacea); assay: Test Example 2: soil surface treatment of field; settings: soil surface spray, dosage 500 g/ha, 19 days after application
Description: (§1) A cylindrical plastic pot having a diameter of 10 cm and a depth of 10 cm was filled with soil and then seeded with ivyleaf morningglory (Ipomoea hederacea) and velvetleaf (Abutilon theophrasti). Then, each of the compounds 1-2, 1-42, 1-48, 2-2, 2-7, 2-42, 2-45, 3-2, 3-12, 4-7, 4-85, 5-12-R, 5-12-S, 5-17, 6-2, 7-2, 7-6, 7-8, 7-12, 7-48, 7-50, 7-84, 7-118, 7-119, 7-125, 9-7, 9-27 and 9-45 was formulated into an emulsifiable concentrate according to Formulation Example 2 and then diluted to the prescribed amount with water, and the dilution was uniformly sprayed over the surface of the soil with a sprayer at a rate of 1000 liters per hectare. After the application, the test plants were grown in the greenhouse for 19 days, and the herbicidal activity was examined.

[2] = test system: velvetleaf (Abutilon theophrasti); assay: Test Example 2: soil surface treatment of field; settings: soil surface spray, dosage 500 g/ha, 19 days after application
Description: as §1

[3] = test system: ivyleaf morningglory (Ipomoea hederacea); assay: Test Example 1: foliar treatment of field; settings: foliar spray, dosage 125 g/ha, 16 days after application
Description: (§2) A cylindrical plastic pot having a diameter of 10 cm and a depth of 10 cm was filled with soil and then seeded with ivyleaf morningglory (Ipomoea hederacea) and velvetleaf (Abutilon theophrasti). These test plants were grown in a greenhouse for 10 days. Then, each of compounds 1-2, 1-42, 1-45, 1-48, 2-2, 2-7, 2-42, 2-45, 3-2, 3-12, 4-7, 4-85, 5-12-R, 5-12-S, 5-17, 6-2, 7-2, 7-6, 7-8, 7-12, 7-48, 7-50, 7-84, 7-118, 7-119, 7-125, 9-7, 9-27 and 9-45 was formulated into an emulsifiable concentrate according to Formulation Example 2 and then diluted to the prescribed amount with water containing a spreading agent and the dilution was uniformly sprayed over the foliage of the test plants with a sprayer at a rate of 1000 liters per hectare. After the application, the test plants were grown in the greenhouse for 16 days, and the herbicidal activity was determined.

[4] = test system: velvetleaf (Abutilon theophrasti); assay: Test Example 1: foliar treatment of field; settings: foliar spray, dosage 125 g/ha, 16 days after application
Description: as §2

COC(=O)COc1cccc(Oc2cc(-n3c(=O)cc(C(F)(F)F)n(C)c3=O)c(F)cc2Cl)n1 [Compound 2-45, 2-{2-chloro-4-fluoro-5-[3-methyl-2,6-dioxo-4-(trifluoromethyl)-1,2,3,6-tetrahydropyrimidin-1-yl]phenoxy}-6-(methoxycarbonyl)methoxypyridine]
completely controlled: growth of ivyleaf morningglory (herbicidal activity) [1] | growth of velvetleaf (herbicidal activity) [2] | growth of ivyleaf morningglory (herbicidal activity) [3] | growth of velvetleaf (herbicidal activity) [4]

COC(=O)[C@@H](C)Oc1n[nH]c(C)c1Oc1cc(-n2c(=O)cc(C(F)(F)F)n(C)c2=O)c(F)cc1Cl [Compound 5-12-R, (R)-3-{1-(methoxycarbonyl)ethoxy}-4-{2-chloro-4-fluoro-5-[3-methyl-2,6-dioxo-4-(trifluoromethyl)-1,2,3,6-tetrahydropyrimidin-1-yl]phenoxy}-5-methylpyrazole]
completely controlled: growth of ivyleaf morningglory (herbicidal activity) [1] | growth of velvetleaf (herbicidal activity) [2] | growth of ivyleaf morningglory (herbicidal activity) [3] | growth of velvetleaf (herbicidal activity) [4]

COC(=O)C(C)Oc1cc(Oc2cc(-n3c(=O)cc(C(F)(F)F)n(C)c3=O)c(F)cc2Cl)ncn1 (stereo not drawn) [Compound 3-12, methyl 2-([4-{2-chloro-4-fluoro-5-[3-methyl-2,6-dioxo-4-(trifluoromethyl)-1,2,3,6-tetrahydropyrimidin-1-yl]phenoxy}pyrimidin-6-yl]oxy)propionate]
completely controlled: growth of ivyleaf morningglory (herbicidal activity) [1] | growth of velvetleaf (herbicidal activity) [2] | growth of ivyleaf morningglory (herbicidal activity) [3] | growth of velvetleaf (herbicidal activity) [4]

COC(=O)C(C)Oc1cccnc1Oc1cc(-n2c(=O)cc(C(F)(F)F)n(C)c2=O)c(F)cc1Cl (stereo not drawn) [Compound 2-2, 2-{2-chloro-4-fluoro-5-[3-methyl-2,6-dioxo-4-(trifluoromethyl)-1,2,3,6-tetrahydropyrimidin-1-yl]phenoxy}-3-{1-(methoxycarbonyl)ethoxy}pyridine]
completely controlled: growth of ivyleaf morningglory (herbicidal activity) [1] | growth of velvetleaf (herbicidal activity) [2] | growth of ivyleaf morningglory (herbicidal activity) [3] | growth of velvetleaf (herbicidal activity) [4]

COC(=O)COc1cccnc1Oc1cc(-n2c(=O)cc(C(F)(F)F)n(C)c2=O)c(F)cc1Cl [Compound 2-7, 2-{2-chloro-4-fluoro-5-[3-methyl-2,6-dioxo-4-(trifluoromethyl)-1,2,3,6-tetrahydropyrimidin-1-yl]phenoxy}-3-(methoxycarbonyl)methoxypyridine]
completely controlled: growth of ivyleaf morningglory (herbicidal activity) [1] | growth of velvetleaf (herbicidal activity) [2] | growth of ivyleaf morningglory (herbicidal activity) [3] | growth of velvetleaf (herbicidal activity) [4]

COC(=O)C(C)Oc1ccnc(Oc2cc(-n3c(=O)cc(C(F)(F)F)n(C)c3=O)c(F)cc2Cl)n1 (stereo not drawn) [Compound 1-2, methyl 2-([2-{2-chloro-4-fluoro-5-[3-methyl-2,6-dioxo-4-(trifluoromethyl)-1,2,3,6-tetrahydropyrimidin-1-yl]phenoxy}pyrimidin-4-yl]oxy)propionate]
completely controlled: growth of ivyleaf morningglory (herbicidal activity) [1] | growth of velvetleaf (herbicidal activity) [2] | growth of ivyleaf morningglory (herbicidal activity) [3] | growth of velvetleaf (herbicidal activity) [4]

CC(C)=NOC(=O)COc1ncccc1Oc1cc(-n2c(=O)cc(C(F)(F)F)n(C)c2=O)c(F)cc1Cl [Compound 7-118, 3-{2-chloro-4-fluoro-5-[3-methyl-2,6-dioxo-4-(trifluoromethyl)-1,2,3,6-tetrahydropyrimidin-1-yl]phenoxy}-2-isopropylidenaminoxycarbonylmethoxypyridine]
completely controlled: growth of ivyleaf morningglory (herbicidal activity) [1] | growth of velvetleaf (herbicidal activity) [2] | growth of ivyleaf morningglory (herbicidal activity) [3] | growth of velvetleaf (herbicidal activity) [4]

COC(=O)COC(=O)COc1ncccc1Oc1cc(-n2c(=O)cc(C(F)(F)F)n(C)c2=O)c(F)cc1Cl [Compound 7-119, 3-{2-chloro-4-fluoro-5-[3-methyl-2,6-dioxo-4-(trifluoromethyl)-1,2,3,6-tetrahydropyrimidin-1-yl]phenoxy}-2-[(methoxycarbonyl)methoxycarbonylmethoxy]pyridine]
completely controlled: growth of ivyleaf morningglory (herbicidal activity) [1] | growth of velvetleaf (herbicidal activity) [2] | growth of ivyleaf morningglory (herbicidal activity) [3] | growth of velvetleaf (herbicidal activity) [4]

CCCCCOC(=O)COc1ncccc1Oc1cc(-n2c(=O)cc(C(F)(F)F)n(C)c2=O)c(F)cc1Cl [Compound 7-50, 3-{2-chloro-4-fluoro-5-[3-methyl-2,6-dioxo-4-(trifluoromethyl)-1,2,3,6-tetrahydropyrimidin-1-yl]phenoxy}-2-(n-pentyloxycarbonyl)methoxypyridine]
completely controlled: growth of ivyleaf morningglory (herbicidal activity) [1] | growth of velvetleaf (herbicidal activity) [2] | growth of ivyleaf morningglory (herbicidal activity) [3] | growth of velvetleaf (herbicidal activity) [4]

COC(=O)C(C)Oc1cccc(Oc2cc(-n3c(=O)cc(C(F)(F)F)n(C)c3=O)c(F)cc2Cl)n1 (stereo not drawn) [Compound 2-42, 2-{2-chloro-4-fluoro-5-[3-methyl-2,6-dioxo-4-(trifluoromethyl)-1,2,3,6-tetrahydropyrimidin-1-yl]phenoxy}-6-{1-(methoxycarbonyl)ethoxy}pyridine]
completely controlled: growth of ivyleaf morningglory (herbicidal activity) [1] | growth of velvetleaf (herbicidal activity) [2] | growth of ivyleaf morningglory (herbicidal activity) [3] | growth of velvetleaf (herbicidal activity) [4]

Cn1c(C(F)(F)F)cc(=O)n(-c2cc(Oc3cccnc3OCC(=O)OC3CCCC3)c(Cl)cc2F)c1=O [Compound 7-125, 3-{2-chloro-4-fluoro-5-[3-methyl-2,6-dioxo-4-(trifluoromethyl)-1,2,3,6-tetrahydropyrimidin-1-yl]phenoxy}-2-(c-pentyloxycarbonyl)methoxypyridine]
completely controlled: growth of ivyleaf morningglory (herbicidal activity) [1] | growth of velvetleaf (herbicidal activity) [2] | growth of ivyleaf morningglory (herbicidal activity) [3] | growth of velvetleaf (herbicidal activity) [4]

COC(=O)C(C)Oc1ncccc1Oc1cc(-n2c(=O)cc(C(F)(F)F)n(C)c2=O)c(F)cc1Cl (stereo not drawn) [Compound 7-2, 3-{2-chloro-4-fluoro-5-[3-methyl-2,6-dioxo-4-(trifluoromethyl)-1,2,3,6-tetrahydropyrimidin-1-yl]phenoxy}-2-{1-(methoxycarbonyl)ethoxy} pyridine]
completely controlled: growth of ivyleaf morningglory (herbicidal activity) [1] | growth of velvetleaf (herbicidal activity) [2] | growth of ivyleaf morningglory (herbicidal activity) [3] | growth of velvetleaf (herbicidal activity) [4]

COC(=O)C(C)Oc1nccc(Oc2cc(-n3c(=O)cc(C(F)(F)F)n(C)c3=O)c(F)cc2Cl)n1 (stereo not drawn) [Compound 3-2, methyl 2-([4-{2-chloro-4-fluoro-5-[3-methyl-2,6-dioxo-4-(trifluoromethyl)-1,2,3,6-tetrahydropyrimidin-1-yl]phenoxy}pyrimidin-2-yl]oxy)propionate]
completely controlled: growth of ivyleaf morningglory (herbicidal activity) [1] | growth of velvetleaf (herbicidal activity) [2] | growth of ivyleaf morningglory (herbicidal activity) [3] | growth of velvetleaf (herbicidal activity) [4]

Cn1c(C(F)(F)F)cc(=O)n(-c2cc(Oc3cccnc3OCC(=O)O)c(Cl)cc2F)c1=O [Compound 7-6, 3-{2-chloro-4-fluoro-5-[3-methyl-2,6-dioxo-4-(trifluoromethyl)-1,2,3,6-tetrahydropyrimidin-1-yl]phenoxy}-2-carboxymethoxypyridine]
completely controlled: growth of ivyleaf morningglory (herbicidal activity) [1] | growth of velvetleaf (herbicidal activity) [2] | growth of ivyleaf morningglory (herbicidal activity) [3] | growth of velvetleaf (herbicidal activity) [4]

COC(=O)COc1ncccc1Oc1cc(-n2c(=O)cc(C(F)(F)F)n(C)c2=O)c(F)cc1Br [Compound 9-7, 3-{2-bromo-4-fluoro-5-[3-methyl-2,6-dioxo-4-(trifluoromethyl)-1,2,3,6-tetrahydropyrimidin-1-yl]phenoxy}-2-(methoxycarbonyl)methoxypyridine]
completely controlled: growth of ivyleaf morningglory (herbicidal activity) [1] | growth of velvetleaf (herbicidal activity) [2] | growth of ivyleaf morningglory (herbicidal activity) [3] | growth of velvetleaf (herbicidal activity) [4]
